Earlier results in paper PMC5488394, “30 YEARS OF THE MINERALOCORTICOID RECEPTOR: Mineralocorticoid receptor antagonists: 60 years of research and development” (The Journal of Endocrinology, 2017).
Like-named read-outs stand apart in the source and are kept apart here.

Columns and labels:
[1] = cited from earlier work; for mean half-life of spironolactone metabolite: healthy volunteers; for peak absolute plasma concentration / peak relative plasma concentration: steady state after oral 100 mg spironolactone per day
S810L MR mutant = system: S810L MR mutant; design: method as in Geller et al. 2000, Amazit et al. 2015; details: ref Geller et al. 2000, Amazit et al. 2015; cited from earlier work
[2] = system: mineralocorticoid-dependent sodium retention; details: cited from earlier work
[3] = system: estrogen-primed immature rabbits; design: method as in Hertz & Tullner 1958; details: Clauberg assay; ref Hertz & Tullner 1958; cited from earlier work
[4] = design: method as in Liddle 1957; details: patient with congestive heart failure and patient with Addison's disease; ref Liddle 1957; cited from earlier work
MR = system: MR; design: method as in Losert et al. 1985; details: ref Losert et al. 1985; cited from earlier work
[5] = system: Dahl salt-sensitive hypertensive rats; design: method as in Arai et al. 2015b; details: ref Arai et al. 2015b, cited from earlier work; for cardiorenal protection: 100 mg/kg
[6] = design: method as in Weinberger et al. 2002; details: 100 mg OD or 50 mg BID, hypertensive patients; ref Weinberger et al. 2002; cited from earlier work
human MR = system: human MR; design: method as in Arai et al. 2015a; details: ref Arai et al. 2015a; read-out: IC50, block of aldosterone-induced transcriptional activation of human MR; cited from earlier work
human plasma proteins = details: cited from earlier work
[7] = radioactively labeled, rats; ref Kolkhof & Borden 2012; cited from earlier work
[8] = ref Pitt et al. 2003, cited from earlier work
[9] = cited from earlier work
[10] = design: method as in de Gasparo et al. 1989; details: fludrocortisone challenge, healthy volunteers; 50 mg vs 25 mg spironolactone; ref de Gasparo et al. 1989; cited from earlier work
DOCA/salt-loading rats = details: cited from earlier work
[11] = system: MR over other steroid hormone receptors; design: method as in Arai et al. 2015a; details: in vitro; ref Arai et al. 2015a; cited from earlier work
[12] = cited from earlier work; remark: listed apart in the source
aldosterone receptor = system: aldosterone receptor; design: method as in Claire et al. 1979; details: ref Claire et al. 1979; cited from earlier work
rats = details: cited from earlier work
[13] = design: method as in Kolkhof & Borden 2012; details: mice; ref Kolkhof & Borden 2012; cited from earlier work
[14] = design: method as in Pitt et al. 1999; details: low dose on top of standard of care; ref Pitt et al. 1999; cited from earlier work
dogs and monkeys = details: ref Lumb et al. 1978; cited from earlier work
[15] = system: aldosterone-induced cardiac necrosis; design: method as in Selye 1960; details: rats; ref Selye 1960; cited from earlier work
urinary Na+/K+ ratio = system: urinary Na+/K+ ratio; design: method as in Casals-Stenzel et al. 1984; details: rats, on average; ref Casals-Stenzel et al. 1984; cited from earlier work
progesterone receptor = system: progesterone receptor; design: method as in Laurent et al. 1983; details: estrogen-primed rabbit uterus; ref Laurent et al. 1983; cited from earlier work
[16] = system: rat renal cytoplasmatic MR; design: method as in Casals-Stenzel et al. 1984; details: ref Casals-Stenzel et al. 1984; cited from earlier work
rat androgen receptor = system: rat androgen receptor; design: method as in Laurent et al. 1983; details: ref Laurent et al. 1983; cited from earlier work
[17] = ref Karim 1978, Garthwaite & McMahon 2004
[18] = single oral dose 50 mg, healthy subjects, ref Thosar et al. 2003

CS[C@H]1[C@@H]2[C@H](CC[C@@]3(C)[C@H]2CC[C@@]32CCC(=O)O2)[C@@]2(C)CCC(=O)C=C2[C@@H]1O [HTMS, 6β-hydroxy-7α-thiomethyl-spironolactone]
mean half-life of spironolactone metabolite [1, 17]: 15.0 h | peak absolute plasma concentration ([1]; ref Gardiner et al. 1989): 125 ng/mL | peak relative plasma concentration ([1]; ref Gardiner et al. 1989): 16.1%

CC(=O)[C@H]1CC[C@H]2[C@@H]3CCC4=CC(=O)CC[C@]4(C)[C@H]3CC[C@]12C [Progesterone]
effect on S810L MR mutant (S810L MR mutant): paradoxically activate

C[C@]12CCC(=O)C=C1CC[C@@H]1[C@@H]2CC[C@@]2(C)[C@H]1CC[C@@]21CCC(=O)O1 [SC-5233, 3-(3-oxo-17β-hydroxy-4-androsten-17α-yl)propionic acid γ-lactone]
antagonistic efficacy in mineralocorticoid-dependent models ([2]; strictly dependent on presence of a mineralocorticoid, ref Kagawa et al. 1959): convincing antagonistic efficacy | in vivo progestational activity [3]: substantial in vivo progestational activity | natriuretic activity in patients [4]: natriuretic activity

C[C@]12CC[C@H]3[C@@H](CCC4=CC(=O)CC[C@@H]43)[C@@H]1CC[C@@]21CCC(=O)O1 [SC-8109]
potency on mineralocorticoid-dependent sodium retention relative to SC-5233 ([2]; adrenalectomized rats, ref Kagawa et al. 1957): more potent than SC-5233 | in vivo progestational activity [3]: substantial in vivo progestational activity

CS[C@@H]1CC2=CC(=O)CC[C@]2(C)[C@H]2CC[C@@]3(C)[C@@H](CC[C@@]34CCC(=O)O4)[C@H]12 [TMS, 7α-thiomethyl-spironolactone]
mean half-life of spironolactone metabolite [1, 17]: 13.8 h | peak absolute plasma concentration ([1]; ref Gardiner et al. 1989): 391 ng/mL | peak relative plasma concentration ([1]; ref Gardiner et al. 1989): 50.3%

C[C@]12CCC(=O)C=C1C=C[C@@H]1[C@@H]2CC[C@@]2(C)[C@H]1CC[C@@]21CCC(=O)O1 [canrenone]
mean half-life of spironolactone metabolite [1, 17]: 16.5 h | canrenone proportion of metabolites after spironolactone ([1]; multiple doses, ref Gardiner et al. 1989): about 23% | canrenone proportion of metabolites after spironolactone ([1]; single dose, ref Merkus et al. 1983): about 15% | peak absolute plasma concentration ([1]; ref Gardiner et al. 1989): 181 ng/mL | peak relative plasma concentration ([1]; ref Gardiner et al. 1989): 23.3%

C[C@]12CCC(=O)C=C1[C@@H]1C[C@@H]1[C@H]1[C@@H]3[C@@H]4C[C@@H]4[C@@]4(CCC(=O)O4)[C@@]3(C)CC[C@@H]12 [drospirenone, 1,2-dihydro-spirorenone]
potency relative to spironolactone on the MR in rats (MR): eight times more potent

COC(=O)[C@@H]1CC2=CC(=O)CC[C@]2(C)[C@@]23O[C@@H]2C[C@@]2(C)[C@@H](CC[C@@]24CCC(=O)O4)[C@H]13 [eplerenone, 9-11α-epoxymexrenone]
cardiorenal protection [5]: only partial cardiorenal protection | efficacy compared to 50 mg spironolactone twice daily [6]: 50–75% | IC50 (human MR): 970 nM | bound fraction (plasma proteins) (human plasma proteins; ref Inspra Prescribing Information 2002): about 50% | effect on S810L MR mutant (S810L MR mutant): paradoxically activate | accumulation of drug equivalent concentration in kidneys compared with heart tissue [7]: ≥ 3 fold | incidence of serious hyperkalemia (≥6 mmol/L) vs placebo ([8]; P = 0.002): significantly higher | primary endpoint, death from any cause or hospitalization for CV events ([8]; vs placebo, mean follow-up 16 months): significantly reduced | active metabolites ([9]; ref Kolkhof & Borden 2012): no active metabolites | duration of natriuretic effect [9, 18]: ~ 10 h | half-life [9, 18]: 2.9 h | half-life ([9]; steady state after multiple doses of 100 mg, ref Cook et al. 2003): 4 h | natriuretic activity vs spironolactone [10]: rough equi-efficacy

Cc1c(C(=O)Nc2ccc(S(C)(=O)=O)cc2)cn(CCO)c1-c1ccccc1C(F)(F)F [esaxerenone, (5S)-1-(2-hydroxyethyl)-4-methyl-N-[4-(methylsulfonyl)phenyl]-5-[2-(trifluoromethyl)phenyl]-1H-pyrrole-3-carboxamide]
antihypertensive effect ([5]; chronic treatment, 0.5 mg/kg equivalent to spironolactone or eplerenone 100 mg/kg): dose-dependent antihypertensive effect | reduction of proteinuria and renal hypertrophy, potency vs spironolactone and eplerenone [5]: superior potency | IC50 (human MR): 3.7 nM | antihypertensive activity vs spironolactone or eplerenone (DOCA/salt-loading rats; DOCA/salt-loading rats, ref Arai et al. 2015a): more pronounced antihypertensive activity | effect on hypertension and renal injury in DOCA rats (DOCA/salt-loading rats; ref Arai et al. 2016): not only prevented but also ameliorated | selectivity for MR over other steroid hormone receptors [11]: ≥ 1000 fold

CC(=O)S[C@@H]1CC2=CC(=O)C=C[C@]2(C)[C@H]2CC[C@@]3(C)[C@@H]([C@@H]4C[C@@H]4[C@@]34CCC(=O)O4)[C@H]12 [mespirenone, 15β,16β-methylene-spironolactone]
natriuretic potency relative to spironolactone ([12]; healthy volunteers, ref Losert et al. 1986): 6 fold

C[C@]12CCC(=O)C=C1[C@@H]1C[C@@H]1[C@@H]1[C@@H]2CC[C@@]2(C)[C@H]1CC[C@@]21CCC(=O)O1 [prorenone]
effect on nuclear translocation of the aldosterone receptor (aldosterone receptor): blocks nuclear translocation

CC(=O)S[C@@H]1CC2=CC(=O)CC[C@]2(C)[C@H]2CC[C@@]3(C)[C@@H](CC[C@@]34CCC(=O)O4)[C@H]12 [spironolactone, 7α-acetylthio-17α-hydroxy-3-oxopregn-4-ene-21-carboxylic acid γ-lactone]
plasma half-life [1, 17]: less than 2 h | peak absolute plasma concentration ([1]; ref Gardiner et al. 1989): […] | tumor finding, 104-week rat study (rats; 10, 30 and 100 mg/kg/day, ref Aldactone NDA 2008): significant increases in hepatocellular adenomas and benign testicular and thyroid adenomas | tumor finding, 78-week rat study (rats; male rats, 500 mg/kg, 78 weeks, ref Mayer et al. 1988): increased numbers of benign testicular adenomas | finding in chronic toxicity studies in rats (rats; rat, in vivo): tumorigenic | cardiorenal protection [5]: only partial cardiorenal protection | IC50 (human MR): […] | whole radioactivity in cardiac tissue [13]: below the detection limit | mortality in severe heart failure [14]: mortality reduction | tumorigenic or carcinogenic potential in chronic dog and monkey studies (dogs and monkeys): no tumorigenic or carcinogenic potential | bound to human plasma proteins (human plasma proteins; ref Chien et al. 1976): 94% | effect on S810L MR mutant (S810L MR mutant): paradoxically activate | protection from aldosterone-induced cardiac necrosis [15]: protected

C[C@]12C=CC(=O)C=C1[C@@H]1C[C@@H]1[C@H]1[C@@H]3[C@@H]4C[C@@H]4[C@@]4(CCC(=O)O4)[C@@]3(C)CC[C@@H]12 [spirorenone]
in vivo activity on urinary Na+/K+ ratio relative to spironolactone (urinary Na+/K+ ratio): 8.6 times | affinity for the progesterone receptor vs spironolactone (progesterone receptor): higher affinity | affinity for rat renal cytoplasmatic MR relative to spironolactone [16]: 0.73 times | potency relative to spironolactone, urinary sodium excretion ([12]; single dose, healthy individuals, ref Seifert et al. 1982): at least 4 times | affinity for the rat androgen receptor (rat androgen receptor): practically no affinity
